Read-outs that look alike come from different tables or passages of the source.
Assays:
cultured mesangial cells = assay: Protective effect against cell injury of cultured mesangial cells, oxidized LDL-induced LDH leakage; assay type: cell-based, rats
Procedure: For the purpose of evaluating in vitro cytoprotective effect of the compounds of the present invention, protective effect against cell injury of cultured mesangial cells induced by oxidized low-density lipoprotein (LDL) was examined. The cells used were subcultures after 4 to 6 passages of the primary cultures of mesangial cells prepared from kidney of 4-week-old SD-strain male rats (Nippon Charles River Corp.).
The oxidized LDL was prepared by placing 1 mg/ml of rabbit LDL in PBS (−) in the presence of 10 μM CuSO4 at 37° C. for 24 hours. Cell cultures were prepared by inoculating 2.5×10^4 cells/250 μl/well on a 48-well plate using RPMI1640 medium containing 20% FBS. Immediately before addition of test compounds, the medium was replaced with RPMI1640 free from FBS. Test compounds were dissolved or suspended in ethanol and added at 1.25 μl/well 16 hours before or immediately before addition of the oxidized LDL to a concentration of 1, 3 or 10 μM in each well. Unlike Test example 1, the oxidized LDL was not diluted with physiological saline and added to cells at 25 μl/well to a concentration of 91 μg/ml and the cells were incubated for 8 hours after addition of the oxidized LDL. After the incubation, 150 μl of the culture medium was collected from each of the wells and measured for the lactate dehydrogenase activity (Lactate Dehydrogenase (LD-L): SIGMA DIAGNOSTICS) which has leaked in the culture medium.
(§1) The cytoprotective effect was expressed as a % cytoprotection where the effect in wells containing the oxidized LDL but without any test compound is 0% and the effect in wells containing physiological saline in place of the oxidized LDL is 100%.

[1] = system: porcine kidney-derived LLC-PK1 cells; assay: Protective effect against cell injury of porcine kidney-derived LLC-PK1 cells (1), oxidized LDL-induced LDH leakage; assay type: cell-based; details: oxidized LDL 100 μg/ml, 6 hours; for % cytoprotection 1): test compounds added 16 hours before addition of oxidized LDL; for % cytoprotection 2): test compounds added immediately before addition of oxidized LDL
Procedure: (§2) For the purpose of evaluating in vitro cytoprotective effect of the compounds of the present invention, protective effect against cell injury of porcine kidney-derived LLC-PK1 cells (ATCC-CRL-13921) induced by oxidized low-density lipoprotein (oxidized LDL) was examined.
(§3) The oxidized LDL was prepared by placing 1 mg/ml of rabbit LDL in PBS (−) in the presence of 10 μM CuSO4 at 37° C. for 24 hours. Cell cultures were prepared by inoculating 1.25×10^4 cells/250 μl/well on a 48-well plate using M199 medium containing 3% FBS. Test compounds were dissolved or suspended in ethanol and added at a ratio of 1.25 μl/well 16 hours before or immediately before addition of the oxidized LDL to a concentration of 0.1, 1 or 10 μM in each well. The oxidized LDL was diluted twice with physiological saline and then added to cells at 62.5 μl/well to a concentration of 100 μg/ml and the cells were incubated for 6 hours after addition of the oxidized LDL. After the incubation, 162.5 μl of the culture medium was collected from each of the wells and measured for the lactate dehydrogenase (LDH) activity (Lactate Dehydrogenase (LD-L): SIGNA DIAGNOSTICS) which has leaked into the culture medium.
as §1

[2] = system: porcine kidney-derived LLC-PK1 cells; assay: Protective effect against cell injury of porcine kidney-derived LLC-PK1 cells (2), oxidized LDL-induced LDH leakage; assay type: cell-based
Procedure: as §3, §1
as §2, with “examined in the same manner as in Test example 1.” for “examined.”
Preparation of oxidized LDL and conditions for cell culture and addition of test compounds were the same as those in Test example 1, except that the oxidized LDL was not diluted with physiological saline and added to cells at 25 μl/well to a concentration of 91 μg/ml and the cells were incubated for 6 hours after addition of oxidized LDL. After the incubation, 150 μl of the culture medium was collected from each of the wells and measured for the lactate dehydrogenase (LDH) activity (Lactate Dehydrogenase (LD-L): SIGMA DIAGNOSTICS) which has leaked in the culture medium.

[3] = Rattus norvegicus, Mesangial cell; 1 μM; test compounds added 16 hours before addition of oxidized LDL; oxidized LDL 91 μg/ml, 8 hours; read-out: % cytoprotection 1)
[4] = Rattus norvegicus, Mesangial cell; 1 μM; test compounds added immediately before addition of oxidized LDL; oxidized LDL 91 μg/ml, 8 hours; read-out: % cytoprotection 2)
[5] = Rattus norvegicus, Mesangial cell; 3 μM; test compounds added 16 hours before addition of oxidized LDL; oxidized LDL 91 μg/ml, 8 hours; read-out: % cytoprotection 1)
[6] = Rattus norvegicus, Mesangial cell; 3 μM; test compounds added immediately before addition of oxidized LDL; oxidized LDL 91 μg/ml, 8 hours; read-out: % cytoprotection 2)
[7] = Sus scrofa, LLC-PK1; 0.1 μM; test compounds added 16 hours before addition of oxidized LDL; oxidized LDL 91 μg/ml, 6 hours; read-out: % cytoprotection 1)
[8] = Sus scrofa, LLC-PK1; 0.1 μM; test compounds added immediately before addition of oxidized LDL; oxidized LDL 91 μg/ml, 6 hours; read-out: % cytoprotection 2)
[9] = Sus scrofa, LLC-PK1; 1 μM; test compounds added 16 hours before addition of oxidized LDL; oxidized LDL 91 μg/ml, 6 hours; read-out: % cytoprotection 1)
[10] = Sus scrofa, LLC-PK1; 1 μM; test compounds added immediately before addition of oxidized LDL; oxidized LDL 91 μg/ml, 6 hours; read-out: % cytoprotection 2)
[11] = Sus scrofa, LLC-PK1; 10 μM; test compounds added 16 hours before addition of oxidized LDL; oxidized LDL 91 μg/ml, 6 hours; read-out: % cytoprotection 1)
[12] = Sus scrofa, LLC-PK1; 10 μM; test compounds added immediately before addition of oxidized LDL; oxidized LDL 91 μg/ml, 6 hours; read-out: % cytoprotection 2)

With `CC1Cc2c(c(C(C)(C)C)cc(O)c2C(C)(C)C)O1` (centres unmarked) [Example 2, 4,7-Di-t-butyl-5-hydroxy-2-methyl-2,3-dihydrobenzofuran] the inhibition at 1 µM (cultured mesangial cells; [3]) was 35.6 ± 7.5%, the inhibition at 1 µM (cultured mesangial cells; [4]) was 40.6 ± 8.2% and the inhibition at 3 µM (cultured mesangial cells; [5]) was 60.5 ± 6.2%. For the same molecule, the inhibition at 3 µM (cultured mesangial cells; [6]) was 53.1 ± 5.7%, the “% cytoprotection 1)” value ([1]; 0.1 μM) was 24.4% and the “% cytoprotection 2)” value ([1]; 0.1 μM) was 27.1%. For the same molecule, the “% cytoprotection 1)” value ([1]; 1 μM) was 101.2%, the “% cytoprotection 2)” value ([1]; 1 μM) was 101.5% and the “% cytoprotection 1)” value ([1]; 10 μM) was 101.0%. For the same molecule, the “% cytoprotection 2)” value ([1]; 10 μM) was 99.9%.

In the case of `CC(C)(C)c1cc(O)c(C(C)(C)C)c2c1OCC2` [Example 1, 4,7-Di-t-butyl-5-hydroxy-2,3-dihydrobenzofuran], the inhibition at 1 µM (cultured mesangial cells; [3]) is reported as 24.2 ± 9.3%, the inhibition at 1 µM (cultured mesangial cells; [4]) is reported as 40.3 ± 3.2% and the inhibition at 3 µM (cultured mesangial cells; [5]) is reported as 78.2 ± 13.4%. For the same molecule, the inhibition at 3 µM (cultured mesangial cells; [6]) was 69.7 ± 13.3%, the “% cytoprotection 1)” value ([1]; 0.1 μM) was 92.7% and the “% cytoprotection 2)” value ([1]; 0.1 μM) was 17.5%. The “% cytoprotection 1)” value ([1]; 1 μM) was 104.1%, the “% cytoprotection 2)” value ([1]; 1 μM) was 103.9% and the “% cytoprotection 1)” value ([1]; 10 μM) was 100.5%. For the same molecule, the “% cytoprotection 2)” value ([1]; 10 μM) was 102.3%.

`CC1(C)Cc2c(c(C(C)(C)C)cc(O)c2C(C)(C)C)O1` [Example 4, 4,7-Di-t-butyl-5-hydroxy-2,2-dimethyl-2,3-dihydrobenzofuran] showed an inhibition at 1 µM (cultured mesangial cells; [3]) of 31.1 ± 5.4%, an inhibition at 1 µM (cultured mesangial cells; [4]) of 32.5 ± 1.9% and an inhibition at 3 µM (cultured mesangial cells; [5]) of 66.4 ± 5.9%. It also gave an inhibition at 3 µM (cultured mesangial cells; [6]) of 54.3 ± 9.7%, an inhibition at 0.1 µM [2, 7] of 11.3% and an inhibition at 0.1 µM [2, 8] of 14.4%. It also gave an inhibition at 1 µM [2, 9] of 100%, an inhibition at 1 µM [2, 10] of 99% and an inhibition at 10 µM [2, 11] of 98.3%. The inhibition at 10 µM [2, 12] was 99.8%.

With `CC(C)(C)c1cc2c(cc1O)CC1(CCCCCC1)O2` [Example 7, 6-t-Butyl-5-hydroxy-2,3-dihydrobenzofuran-2-spiro-1′-cycloheptane] the inhibition at 1 µM (cultured mesangial cells; [3]) was 19.3 ± 2.8%, the inhibition at 1 µM (cultured mesangial cells; [4]) was 22 ± 1.9% and the inhibition at 3 µM (cultured mesangial cells; [5]) was 18.1 ± 4.1%. It also gave an inhibition at 3 µM (cultured mesangial cells; [6]) of 24.5 ± 0.8%, an inhibition at 0.1 µM [2, 7] of 19.1% and an inhibition at 0.1 µM [2, 8] of 14.7%. The inhibition at 1 µM [2, 9] was 104%, the inhibition at 1 µM [2, 10] was 104% and the inhibition at 10 µM [2, 11] was 105%. It also gave an inhibition at 10 µM [2, 12] of 105%.

In the case of `Cc1c(O)c(C(C)(C)C)cc2c1CC1(CCCCCC1)O2` [Example 14-(1), 6-t-Butyl-5-hydroxy-4-methyl-2,3-dihydrobenzofuran-2-spiro-1′-cycloheptane], the inhibition at 1 µM (cultured mesangial cells; [3]) is reported as 19.7 ± 7.7%, the inhibition at 1 µM (cultured mesangial cells; [4]) is reported as 34.4 ± 1.5% and the inhibition at 3 µM (cultured mesangial cells; [5]) is reported as 59.3 ± 2.1%. For the same molecule, the inhibition at 3 µM (cultured mesangial cells; [6]) was 43.2 ± 2.8%, the inhibition at 0.1 µM [2, 7] was -6.5% and the inhibition at 0.1 µM [2, 8] was -9.2%. It also gave an inhibition at 1 µM [2, 9] of 103%, an inhibition at 1 µM [2, 10] of 101% and an inhibition at 10 µM [2, 11] of 104%. It also gave an inhibition at 10 µM [2, 12] of 103%.

Molecule `CCCc1c(O)c(C(C)(C)C)cc2c1CC1(CCCCCC1)O2` [Example 9, 6-t-Butyl-5-hydroxy-4-n-propyl-2,3-dihydrobenzofuran-2-spiro-1′-cycloheptane] has an inhibition at 1 µM (cultured mesangial cells; [3]) of 14.4 ± 5.1%, an inhibition at 1 µM (cultured mesangial cells; [4]) of 29.6 ± 2% and an inhibition at 3 µM (cultured mesangial cells; [5]) of 56.2 ± 9.3%. It also gave an inhibition at 3 µM (cultured mesangial cells; [6]) of 46.3 ± 1.7%, an inhibition at 0.1 µM [2, 7] of 12.9% and an inhibition at 0.1 µM [2, 8] of 11.5%. It also gave an inhibition at 1 µM [2, 9] of 47.7%, an inhibition at 1 µM [2, 10] of 58.9% and an inhibition at 10 µM [2, 11] of 104%. For the same molecule, the inhibition at 10 µM [2, 12] was 104%.

Work on `CC1(C)Cc2cc(O)c(C(C)(C)C)cc2O1` [Example 5, 6-t-Butyl-5-hydroxy-2,2-dimethyl-2,3-dihydrobenzofuran] yielded an inhibition at 1 µM (cultured mesangial cells; [3]) of 34.2 ± 4.5%, an inhibition at 1 µM (cultured mesangial cells; [4]) of 11.3 ± 2.4% and an inhibition at 3 µM (cultured mesangial cells; [5]) of 42.3 ± 4.7%. For the same molecule, the inhibition at 3 µM (cultured mesangial cells; [6]) was 28.9 ± 2%, the “% cytoprotection 1)” value ([1]; 0.1 μM) was 77.6% and the “% cytoprotection 2)” value ([1]; 0.1 μM) was 18.2%. For the same molecule, the “% cytoprotection 1)” value ([1]; 1 μM) was 103.4%, the “% cytoprotection 2)” value ([1]; 1 μM) was 100.8% and the “% cytoprotection 1)” value ([1]; 10 μM) was 100.6%. The “% cytoprotection 2)” value ([1]; 10 μM) was 101.7%.

Molecule `CCC(C)c1c(O)c(C(C)(C)C)cc2c1CC1(CCCCCC1)O2` (centres unmarked) [Example 13, 6-t-Butyl-5-hydroxy-4-(1-methylpropyl)-2,3-dihydrobenzofuran-2-spiro-1′-cycloheptane] has an inhibition at 1 µM (cultured mesangial cells; [3]) of 1.7 ± 2.9%, an inhibition at 1 µM (cultured mesangial cells; [4]) of -4.3 ± 5.1% and an inhibition at 3 µM (cultured mesangial cells; [5]) of 18.4 ± 9.2%. It also gave an inhibition at 3 µM (cultured mesangial cells; [6]) of 11.1 ± 4.3%, an inhibition at 0.1 µM [2, 7] of 5.5% and an inhibition at 0.1 µM [2, 8] of 3.4%. The inhibition at 1 µM [2, 9] was 13.6%, the inhibition at 1 µM [2, 10] was 9.9% and the inhibition at 10 µM [2, 11] was 100%. The inhibition at 10 µM [2, 12] was 100%.

Reference: patent US6403639B1, “2,3-dihydrobenzofuran derivatives” (Chugai Seiyaku Kabushiki Kaisha, priority 1997, dated 2002)
